Measured values published in patent publication US20260042764A1, “COMPOSITIONS AND METHODS FOR INHIBITION OF KRAS” (TheRas, Inc., priority 2022, published 2026).

Assays:
SW620 cells (KRAS G12V) = assay: Cell-based pERK HTRF assay in SW620 cell (Biological Example 4); conditions: pERK HTRF
Method in brief: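 SW620 seeded in RPMI/10% FBS, next day dosed 4 h (top 1 μM, half-log, 9 pts, 0.25% DMSO). Lysed, pERK by d2/Eu cryptate HTRF, 4–24 h RT, 615 nm read.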

[1] = biological target: T1, Avi-KRAS G12R (1-169) GppNHp/RAF1 RBD-3xFLAG (52-151) (Homo sapiens, UniProt P01116, G12R); assay: Raf1-KRAS G12R-GppNHP disruption HTRF assay (Biological Example 1); type: binding
T1 construct: Avi-KRAS G12R (1-169)
T1 sequence (P01116 1-169 isoform P01116-2 G12R): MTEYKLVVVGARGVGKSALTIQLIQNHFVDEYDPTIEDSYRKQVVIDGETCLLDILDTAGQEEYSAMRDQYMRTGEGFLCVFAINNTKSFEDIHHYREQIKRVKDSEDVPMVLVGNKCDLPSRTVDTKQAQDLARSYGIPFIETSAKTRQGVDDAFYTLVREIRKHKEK
Method in brief: (§1)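 Protein mix, 1 h RT, 700 rpm; reagent mix, 1 h RT, 700 rpm; HTRF read. Buffer Tris pH 7.5/NaCl/MgCl2/BSA/Tween, 10% DMSO. Output % activity, DMSO = 100%.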

[2] = biological target: T2, Avi-KRAS G12D (1-169) GppNHp/RAF1 RBD-3xFLAG (52-151) (Homo sapiens, UniProt P01116, G12D); assay: Raf1-KRAS G12D-GppNHP disruption HTRF assay (Biological Example 1); type: binding
T2 construct: Avi-KRAS G12D (1-169)
T2 sequence (P01116 1-169 isoform P01116-2 G12D): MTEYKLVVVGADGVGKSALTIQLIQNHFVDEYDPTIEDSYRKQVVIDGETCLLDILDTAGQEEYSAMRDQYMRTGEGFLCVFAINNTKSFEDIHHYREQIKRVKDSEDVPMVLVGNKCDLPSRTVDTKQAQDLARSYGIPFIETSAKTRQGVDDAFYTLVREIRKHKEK
Method in brief: as §1

GP2d cells (KRAS G12D) = assay: Cell-based pERK HTRF assay in GP2d cell (Biological Example 2); conditions: GP2d (KRAS G12D) cells, pERK HTRF
Method in brief: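 Cells grown in DMEM with 10% FBS were exposed to compound for 60 min at 0.25% DMSO, using a 9-point half-log series starting at 1 μM or 100 nM. Lysates were then mixed with d2 and Eu cryptate antibodies for 4–24 h at room temperature, and pERK was read by HTRF.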

[3] = biological target: T3, Avi-KRAS WT (1-169) GppNHp/RAF1 RBD-3xFLAG (52-151) (Homo sapiens, UniProt P01116); assay: Raf1-KRAS WT-GppNHP disruption HTRF assay (Biological Example 1); type: binding
T3 construct: Avi-KRAS WT (1-169)
T3 sequence (P01116 1-169 isoform P01116-2): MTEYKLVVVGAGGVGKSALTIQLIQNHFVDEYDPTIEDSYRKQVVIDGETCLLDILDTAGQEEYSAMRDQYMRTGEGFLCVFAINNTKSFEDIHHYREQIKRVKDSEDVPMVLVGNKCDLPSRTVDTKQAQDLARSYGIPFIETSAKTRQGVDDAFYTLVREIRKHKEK
Method in brief: as §1

[4] = biological target: T4, Avi-KRAS G12V (1-169) GppNHp/RAF1 RBD-3xFLAG (52-151) (Homo sapiens, UniProt P01116, G12V); assay: Raf1-KRAS G12V-GppNHP disruption HTRF assay (Biological Example 1); type: binding
T4 construct: Avi-KRAS G12V (1-169)
T4 sequence (P01116 1-169 isoform P01116-2 G12V): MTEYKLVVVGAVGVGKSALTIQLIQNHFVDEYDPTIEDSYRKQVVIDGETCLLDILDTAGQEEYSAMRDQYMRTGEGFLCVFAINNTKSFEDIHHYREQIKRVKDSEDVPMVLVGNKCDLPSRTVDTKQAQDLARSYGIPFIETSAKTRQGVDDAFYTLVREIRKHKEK
Method in brief: as §1

[5] = Homo sapiens, SW-620, SW620 (KRAS G12V) cells
[6] = Homo sapiens, SW-620, SW620 (KRAS G12V) cells, class symbols
[7] = KRAS G12R, GppNHp-loaded, class symbols
[8] = KRAS G12D, GppNHp-loaded, class symbols
[9] = KRAS WT, GppNHp-loaded, class symbols
[10] = KRAS G12V, GppNHp-loaded, class symbols
[11] = KRAS G12R, GppNHp-loaded, Table 11
[12] = KRAS G12D, GppNHp-loaded, Table 11
[13] = KRAS WT, GppNHp-loaded, Table 11
[14] = KRAS G12V, GppNHp-loaded, Table 11

IC50 (SW620 cells (KRAS G12V); [5])	IC50 ([1]; KRAS G12R-GppNHp/RAF1 RBD HTRF)	IC50 ([2]; KRAS G12D-GppNHp/RAF1 RBD HTRF)	IC50 (GP2d cells (KRAS G12D); GP2d)	IC50 ([3]; KRAS WT-GppNHp/RAF1 RBD HTRF)	IC50 ([4]; KRAS G12V-GppNHp/RAF1 RBD HTRF)	Structure (SMILES)	also measured
< 100 nM	100 to 1000 nM	100 to 1000 nM	< 100 nM	100 to 1000 nM	100 to 1000 nM	C[C@@H]1CC[C@@H](O)CN1c1nc(OC[C@@]23CCCN2C[C@H](F)C3)nc2c(F)c(-c3ccc(F)c4sc(N)c(C#N)c34)c(C(F)(F)F)cc12 [Compound 314]	
< 100 nM	100 to 1000 nM	100 to 1000 nM	< 100 nM	100 to 1000 nM	100 to 1000 nM	CC(=O)N1CC[C@@H]2[C@H]1CN2c1nc(OC[C@@]23CCCN2C[C@H](F)C3)nc2c(F)c(-c3ccc(F)c4sc(N)c(C#N)c34)c(C(F)(F)F)cc12 [Compound 514]	
						CCN(CC)C(=O)c1nn2c(c1C)CN(c1nc(OCC34CCCN3CC(F)C4)nc3c(F)c(-c4ccc(F)c5sc(N)c(C#N)c45)c(C(F)(F)F)cc13)CC2 (stereo not drawn) [Compound 740]	IC50 (SW620 cells (KRAS G12V); [6]): < 100 nM; IC50 [1, 7]: 100 to 1000 nM; IC50 [2, 8]: 100 to 1000 nM; IC50 (GP2d cells (KRAS G12D); GP2d, class symbols): < 100 nM; IC50 [3, 9]: 100 to 1000 nM; IC50 [4, 10]: 100 to 1000 nM
< 100 nM	1000 to 10000 nM	100 to 1000 nM	< 100 nM	1000 to 10000 nM	1000 to 10000 nM	CN(C)C(=O)c1cnn2c1CN(c1nc(OC[C@@]34CCCN3C[C@H](F)C4)nc3c(F)c(-c4ccc(F)c5sc(N)c(C#N)c45)c(C(F)(F)F)cc13)CC2 [Compound 353]	
						CCN(c1nc(OC[C@@]23CCCN2C[C@H](F)C3)nc2c(F)c(-c3ccc(F)c4sc(N)c(C#N)c34)c(C(F)(F)F)cc12)[C@H]1CCN(C(=O)[C@H]2CCCCO2)C1 (atropisomer, axis not shown) [Compound 770]	IC50 (SW620 cells (KRAS G12V); [6]): < 100 nM; IC50 [1, 7]: < 100 nM; IC50 [2, 8]: < 100 nM; IC50 (GP2d cells (KRAS G12D); GP2d, class symbols): < 100 nM; IC50 [3, 9]: < 100 nM; IC50 [4, 10]: < 100 nM
< 100 nM	< 100 nM	< 100 nM	< 100 nM	100 to 1000 nM	< 100 nM	CCN(c1nc(OC[C@@]23CCCN2C[C@H](F)C3)nc2c(F)c(-c3ccc(F)c4sc(N)c(C#N)c34)c(C(F)(F)F)cc12)[C@H]1CCN(C(=O)C2(F)CC2)C1 (atropisomer, axis not shown) [Compound 559]	
< 100 nM			< 100 nM			C[C@@H]1C[C@H](O)CCN1c1nc(OC[C@@]23CCCN2C[C@H](F)C3)nc2c(F)c(-c3ccc(F)c4sc(N)c(C#N)c34)c(C(F)(F)F)cc12 [Compound 265]	IC50 [1, 11]: 100 to 1000 nM; IC50 [2, 12]: 100 to 1000 nM; IC50 [3, 13]: 100 to 1000 nM; IC50 [4, 14]: 100 to 1000 nM
< 100 nM	100 to 1000 nM	100 to 1000 nM	< 100 nM	100 to 1000 nM	100 to 1000 nM	CCN(c1nc(OC[C@@]23CCCN2C[C@H](F)C3)nc2c(F)c(-c3ccc(F)c4sc(N)c(C#N)c34)c(C(F)(F)F)cc12)[C@H]1CCS(=O)(=O)C1 [Compound 350]	
						COC(=O)N1CC[C@H]2[C@@H]1CN2c1nc(OC[C@@]23CCCN2C[C@H](F)C3)nc2c(F)c(-c3ccc(F)c4sc(N)c(C#N)c34)c(C(F)(F)F)cc12 (atropisomer, axis not shown) [Compound 716]	IC50 (SW620 cells (KRAS G12V); [6]): 100 to 1000 nM; IC50 [1, 7]: > 10000 nM; IC50 [2, 8]: 1000 to 10000 nM; IC50 (GP2d cells (KRAS G12D); GP2d, class symbols): < 100 nM; IC50 [3, 9]: 1000 to 10000 nM; IC50 [4, 10]: > 10000 nM
						N#Cc1c(N)sc2c(F)ccc(-c3c(C(F)(F)F)cc4c(N5CCOCC5)nc(OC[C@@]56CCCN5C[C@H](F)C6)nc4c3F)c12 (single isomer, unassigned) [Compound 199]	IC50 (SW620 cells (KRAS G12V); SW620 (KRAS G12V) cells): > 1000 nM; IC50 [1, 11]: > 10000 nM; IC50 [2, 12]: > 10000 nM; IC50 (GP2d cells (KRAS G12D)): > 1000 nM; IC50 [3, 13]: > 10000 nM; IC50 [4, 14]: > 10000 nM
< 100 nM	1000 to 10000 nM	100 to 1000 nM	< 100 nM	100 to 1000 nM	1000 to 10000 nM	N#Cc1c(N)sc2c(F)ccc(-c3c(C(F)(F)F)cc4c(N5[C@@H]6CO[C@H]7C6OC[C@H]75)nc(OC[C@@]56CCCN5C[C@H](F)C6)nc4c3F)c12 [Compound 382]	
